Source: PubChem BioAssay (NCI)
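1) Cells in 96-well plates. 2) Compound, 48 h, 5 concentrations. 3) Linear interpolation between surrounding doses. 4) Unreached endpoint = highest concentration. GI50 = concentration required for 50% inhibition of growth. Definition used: TGI = concentration required for complete inhibition of growth.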

Legend:
Test in all cases: NCI-60 cell line screen, 48 h
K-562 leukemia = test system: K-562 leukemia
ACHN renal = test system: ACHN renal
UACC-257 melanoma = test system: UACC-257 melanoma
NCI-H522 lung = test system: NCI-H522 lung
MCF7 breast = test system: MCF7 breast
TK-10 renal = test system: TK-10 renal
EKVX NSCLC = test system: EKVX NSCLC
UO-31 renal = test system: UO-31 renal
NCI-H460 lung = test system: NCI-H460 lung
SK-OV-3 ovarian = test system: SK-OV-3 ovarian
BT-549 breast = test system: BT-549 breast
HT29 colon = test system: HT29 colon
HCT-116 colon = test system: HCT-116 colon
COLO 205 colon = test system: COLO 205 colon
SK-MEL-28 melanoma = test system: SK-MEL-28 melanoma
SNB-75 CNS = test system: SNB-75 CNS
A549 NSCLC = test system: A549 NSCLC
HOP-62 NSCLC = test system: HOP-62 NSCLC
SF-268 CNS = test system: SF-268 CNS
RPMI-8226 leukemia = test system: RPMI-8226 leukemia
SK-MEL-5 melanoma = test system: SK-MEL-5 melanoma
OVCAR-4 ovarian = test system: OVCAR-4 ovarian
SN12C renal = test system: SN12C renal
HCT-15 colon = test system: HCT-15 colon
NCI-H226 lung = test system: NCI-H226 lung
SF-539 CNS = test system: SF-539 CNS
HS 578T breast = test system: HS 578T breast
HCC-2998 colon = test system: HCC-2998 colon
OVCAR-5 ovarian = test system: OVCAR-5 ovarian
LOX IMVI melanoma = test system: LOX IMVI melanoma
U251 CNS = test system: U251 CNS
KM12 colon = test system: KM12 colon
786-0 renal = test system: 786-0 renal
IGROV1 ovarian = test system: IGROV1 ovarian
OVCAR-3 ovarian = test system: OVCAR-3 ovarian
T-47D breast = test system: T-47D breast
A498 renal = test system: A498 renal
NCI-H23 lung = test system: NCI-H23 lung
HL-60(TB) leukemia = test system: HL-60(TB) leukemia
SW-620 colon = test system: SW-620 colon
DU-145 prostate = test system: DU-145 prostate
M14 melanoma = test system: M14 melanoma
RXF 393 renal = test system: RXF 393 renal
MALME-3M melanoma = test system: MALME-3M melanoma
MDA-MB-231 breast = test system: MDA-MB-231 breast
SNB-19 CNS = test system: SNB-19 CNS
UACC-62 melanoma = test system: UACC-62 melanoma
HOP-92 NSCLC = test system: HOP-92 NSCLC
OVCAR-8 ovarian = test system: OVCAR-8 ovarian
MOLT-4 leukemia = test system: MOLT-4 leukemia
CAKI-1 renal = test system: CAKI-1 renal
SF-295 CNS = test system: SF-295 CNS
SK-MEL-2 melanoma = test system: SK-MEL-2 melanoma
NCI/ADR-RES ovarian = test system: NCI/ADR-RES ovarian
CCRF-CEM leukemia = test system: CCRF-CEM leukemia
MDA-MB-435 = test system: MDA-MB-435
PC-3 prostate = test system: PC-3 prostate

SMILES: OCCN1CCN(CCCN2c3ccccc3Sc3ccc(Cl)cc32)CC1
- GI50 (K-562 leukemia): 2.1 µM
- TGI (K-562 leukemia): 4.45 µM
- GI50 (ACHN renal): 3.8 µM
- TGI (ACHN renal): 13.6 µM
- GI50 (UACC-257 melanoma): 1.66 µM
- TGI (UACC-257 melanoma): 3.36 µM
- GI50 (NCI-H522 lung): 1.5 µM
- TGI (NCI-H522 lung): 3.13 µM
- GI50 (MCF7 breast): 2.02 µM
- TGI (MCF7 breast): 3.96 µM
- GI50 (TK-10 renal): 1.65 µM
- TGI (TK-10 renal): 3.08 µM
- GI50 (EKVX NSCLC): 3.43 µM
- TGI (EKVX NSCLC): 17.7 µM
- GI50 (UO-31 renal): 4.38 µM
- TGI (UO-31 renal): 18.3 µM
- GI50 (NCI-H460 lung): 1.98 µM
- TGI (NCI-H460 lung): 4.22 µM
- GI50 (SK-OV-3 ovarian): 3.04 µM
- TGI (SK-OV-3 ovarian): 10.2 µM
- GI50 (BT-549 breast): 4.49 µM
- TGI (BT-549 breast): 16.6 µM
- GI50 (HT29 colon): 1.73 µM
- TGI (HT29 colon): 3.42 µM
- GI50 (HCT-116 colon): 1.76 µM
- TGI (HCT-116 colon): 3.55 µM
- GI50 (COLO 205 colon): 1.61 µM
- TGI (COLO 205 colon): 3 µM
- GI50 (SK-MEL-28 melanoma): 1.84 µM
- TGI (SK-MEL-28 melanoma): 3.31 µM
- GI50 (SNB-75 CNS): 3.97 µM
- TGI (SNB-75 CNS): 15.6 µM
- GI50 (A549 NSCLC): 3.68 µM
- TGI (A549 NSCLC): 15.2 µM
- GI50 (HOP-62 NSCLC): 3.02 µM
- TGI (HOP-62 NSCLC): 12.7 µM
- GI50 (SF-268 CNS): 2.79 µM
- TGI (SF-268 CNS): 10.7 µM
- GI50 (RPMI-8226 leukemia): 2.29 µM
- TGI (RPMI-8226 leukemia): 6.7 µM
- GI50 (SK-MEL-5 melanoma): 1.65 µM
- TGI (SK-MEL-5 melanoma): 3 µM
- GI50 (OVCAR-4 ovarian): 4.49 µM
- TGI (OVCAR-4 ovarian): 17.4 µM
- GI50 (SN12C renal): 3.42 µM
- TGI (SN12C renal): 14.2 µM
- GI50 (HCT-15 colon): 2.39 µM
- TGI (HCT-15 colon): 6.13 µM
- GI50 (NCI-H226 lung): 5.26 µM
- TGI (NCI-H226 lung): 19.2 µM
- GI50 (SF-539 CNS): 1.82 µM
- TGI (SF-539 CNS): 3.94 µM
- GI50 (HS 578T breast): 1.98 µM
- TGI (HS 578T breast): 5.71 µM
- GI50 (HCC-2998 colon): 1.5 µM
- TGI (HCC-2998 colon): 2.98 µM
- GI50 (OVCAR-5 ovarian): 3.12 µM
- TGI (OVCAR-5 ovarian): 12.1 µM
- GI50 (LOX IMVI melanoma): 1.59 µM
- TGI (LOX IMVI melanoma): 3.09 µM
- GI50 (U251 CNS): 1.9 µM
- TGI (U251 CNS): 4.33 µM
- GI50 (KM12 colon): 1.91 µM
- TGI (KM12 colon): 3.69 µM
- GI50 (786-0 renal): 1.87 µM
- TGI (786-0 renal): 3.98 µM
- GI50 (IGROV1 ovarian): 3.12 µM
- TGI (IGROV1 ovarian): 12.2 µM
- GI50 (OVCAR-3 ovarian): 2.59 µM
- TGI (OVCAR-3 ovarian): 6.73 µM
- GI50 (T-47D breast): 1.91 µM
- TGI (T-47D breast): 5.56 µM
- GI50 (A498 renal): 1.56 µM
- TGI (A498 renal): 5.87 µM
- GI50 (NCI-H23 lung): 3.83 µM
- TGI (NCI-H23 lung): 18 µM
- GI50 (HL-60(TB) leukemia): 2.06 µM
- TGI (HL-60(TB) leukemia): 4.16 µM
- GI50 (SW-620 colon): 1.77 µM
- TGI (SW-620 colon): 3.52 µM
- GI50 (DU-145 prostate): 5.04 µM
- TGI (DU-145 prostate): 16.2 µM
- GI50 (M14 melanoma): 1.88 µM
- TGI (M14 melanoma): 3.6 µM
- GI50 (RXF 393 renal): 1.96 µM
- TGI (RXF 393 renal): 7.68 µM
- GI50 (MALME-3M melanoma): 1.79 µM
- TGI (MALME-3M melanoma): 3.59 µM
- GI50 (MDA-MB-231 breast): 1.99 µM
- TGI (MDA-MB-231 breast): 4.78 µM
- GI50 (SNB-19 CNS): 2.3 µM
- TGI (SNB-19 CNS): 5.7 µM
- GI50 (UACC-62 melanoma): 1.76 µM
- TGI (UACC-62 melanoma): 3.29 µM
- GI50 (HOP-92 NSCLC): 1.37 µM
- TGI (HOP-92 NSCLC): 6.72 µM
- GI50 (OVCAR-8 ovarian): 2.02 µM
- TGI (OVCAR-8 ovarian): 4.7 µM
- GI50 (MOLT-4 leukemia): 2.4 µM
- TGI (MOLT-4 leukemia): 5.79 µM
- GI50 (CAKI-1 renal): 1.71 µM
- TGI (CAKI-1 renal): 4.52 µM
- GI50 (SF-295 CNS): 1.75 µM
- TGI (SF-295 CNS): 3.65 µM
- GI50 (SK-MEL-2 melanoma): 2.03 µM
- TGI (SK-MEL-2 melanoma): 4.04 µM
- GI50 (NCI/ADR-RES ovarian): 2.72 µM
- TGI (NCI/ADR-RES ovarian): 9.91 µM
- GI50 (CCRF-CEM leukemia): 2.2 µM
- TGI (CCRF-CEM leukemia): 6.24 µM
- GI50 (MDA-MB-435): 1.72 µM
- TGI (MDA-MB-435): 3.33 µM
- GI50 (PC-3 prostate): 2.64 µM
- TGI (PC-3 prostate): 12 µM
